In DBAASP:
≈ marks a conversion by molar mass, not a printed value. Values belong to the compound of their own block, whether it stands above or below them.

Columns and labels:
Assay in all cases: ≥ marks a high value that may be exact or a test limit, other limits are often not marked, values filed in µg/mL are converted to µM
[1] = test system: Pseudomonas aeruginosa PAO1
[2] = test system: Candida albicans ATCC 64550
Bacillus subtilis = test system: Bacillus subtilis
[3] = test system: Pectobacterium carotovorum
Escherichia coli C600 = test system: Escherichia coli C600
[4] = test system: Staphylococcus aureus 209P
[5] = test system: Pseudomonas aeruginosa ATCC 27853
Vibrio cholerae = test system: Vibrio cholerae
Escherichia coli MG1655 = test system: Escherichia coli MG1655
[6] = test system: Staphylococcus aureus MTCC 9542
[7] = test system: Bacillus subtilis MTCC 14416
[8] = test system: Staphylococcus epidermidis ATCC 35984
[9] = test system: Staphylococcus aureus ATCC 25923
[10] = test system: Staphylococcus aureus ATCC 33591
Bacillus subtilis 168 = test system: Bacillus subtilis 168
[11] = test system: Candida albicans F7-39/IDE99
[12] = test system: Micrococcus luteus CCM 144
Escherichia coli B = test system: Escherichia coli B
Staphylococcus aureus 1 = test system: Staphylococcus aureus 1
Pseudomonas aeruginosa = test system: Pseudomonas aeruginosa
[13] = test system: Staphylococcus epidermidis
Staphylococcus aureus = test system: Staphylococcus aureus
[14] = test system: Staphylococcus aureus ATCC 43300
[15] = test system: Enterococcus faecalis ATCC 29212

MIC [1]: 1.79 µM (≈ 2.5 µg/mL)
MIC [2]: ≥ 100 µM
Structure (SMILES): CC(C)[C@H](NC(=O)[C@H](CCCN=C(N)N)NC(=O)[C@@H](NC(=O)[C@H](CCCN=C(N)N)NC(=O)[C@H](Cc1c[nH]c2ccccc12)NC(=O)[C@H](CCCN=C(N)N)NC(=O)[C@@H](N)Cc1c[nH]c2ccccc12)C(C)C)C(=O)N[C@@H](Cc1c[nH]c2ccccc12)C(=O)N[C@@H](CCCN=C(N)N)C(N)=O [WRWRVRVWR]

MIC (Bacillus subtilis): 2.45 µM (≈ 7.77 µg/mL)
MIC [3]: 0.632 µM (≈ 2.01 µg/mL)
Structure (SMILES): CC[C@H](C)[C@H](NC(=O)[C@H](CO)NC(=O)[C@H](CCCN=C(N)N)NC(=O)CNC(=O)[C@H](CCC(=O)O)NC(=O)[C@H](CC(C)C)NC(=O)[C@H](CCC(=O)O)NC(=O)[C@H](CC(C)C)NC(=O)[C@H](CO)NC(=O)[C@H](CC(=O)O)NC(=O)[C@H](Cc1ccc(O)cc1)NC(=O)[C@H](CCCN=C(N)N)NC(=O)[C@H](Cc1ccc(O)cc1)NC(=O)CNC(=O)[C@H](Cc1ccccc1)NC(=O)[C@@H](N)CCCCN)C(=O)N[C@@H](CO)C(=O)N[C@@H](CCCN=C(N)N)C(=O)N[C@H](C(=O)N[C@@H](CC(=O)O)C(=O)N[C@@H](CCC(=O)O)C(=O)N[C@@H](CC(C)C)C(=O)N[C@H](C(=O)N[C@@H](CCC(N)=O)C(=O)N[C@@H](CCC(N)=O)C(=O)N[C@@H](CCCN=C(N)N)C(=O)O)[C@@H](C)CC)[C@@H](C)CC [KFGYRYDSLELEGRSISRIDELIQQR]

MIC (Escherichia coli C600): 1.56 µM (≈ 3.55 µg/mL)
MIC [1]: 12.5 µM (≈ 28.5 µg/mL)
MIC [4]: 1.56 µM (≈ 3.55 µg/mL)
Structure (SMILES): CC(C)[C@@H]1NC(=O)CNC(=O)[C@H](CCCN=C(N)N)NC(=O)[C@H](C(C)C)NC(=O)[C@H](CCCN=C(N)N)NC(=O)[C@H](C)NC(=O)[C@H](CCCN=C(N)N)NC(=O)[C@H](C(C)C)NC(=O)[C@@H](NC(=O)[C@H](Cc2c[nH]c3ccccc23)NC(=O)[C@@H](N)CCCN=C(N)N)CSSC[C@@H](C(=O)N[C@@H](Cc2c[nH]c3ccccc23)C(=O)O)NC(=O)[C@H](CCCN=C(N)N)NC(=O)[C@H](CCCN=C(N)N)NC(=O)[C@H](Cc2ccc(O)cc2)NC(=O)[C@H](CCCN=C(N)N)NC1=O [RWCVRARVRGVRYRRCW]

MIC [5]: > 51 µM
MIC (Escherichia coli MG1655): ≥ 51 µM
MIC [6]: 25.5 µM (≈ 49.9 µg/mL)
MIC [7]: ≥ 51 µM
Structure (SMILES): CC[C@H](C)[C@@H]1NC(=O)[C@H](CCCCN)NC(=O)[C@@H](NC(=O)[C@H](CC(C)C)NC(=O)[C@@H](NC(=O)[C@H](CCC(N)=O)NC(=O)[C@@H]2CCCN2C(=O)[C@H](CC(C)C)NC(=O)[C@H](Cc2ccccc2)NC(=O)[C@H](CC(N)=O)NC(=O)[C@H](C)NC(=O)[C@H](C)NC(=O)[C@H](CC(C)C)NC(=O)CN)[C@@H](C)CC)CSSC[C@@H](C(N)=O)NC(=O)[C@H](CCCCN)NC(=O)[C@H](CCCN=C(N)N)NC(=O)[C@H](C)NC1=O [GLAANFLPQILCKIARKC]
MIC (Vibrio cholerae): 25.5 µM (≈ 49.9 µg/mL)

MIC [8]: ≥ 262 µM
MIC [5]: > 371 µM
MIC [9]: > 371 µM
MIC [10]: ≥ 371 µM
Structure (SMILES): CC(C)C[C@H](NC(=O)[C@H](Cc1ccccc1)NC(=O)[C@H](CCCCN)NC(=O)CN)C(=O)N[C@@H](CCCCN)C(=O)N[C@@H](CCCCN)C(=O)N[C@@H](C)C(=O)N[C@@H](CCCCN)C(=O)N[C@@H](CCCCN)C(=O)N[C@@H](Cc1ccccc1)C(=O)NCC(=O)N[C@@H](CCCCN)C(N)=O [GKFLKKAKKFGK]

MIC (Bacillus subtilis 168): 7 µM (≈ 12.3 µg/mL)
MIC [11]: 5 µM (≈ 8.78 µg/mL)
MIC [12]: 3 µM (≈ 5.27 µg/mL)
MIC (Escherichia coli B): 20 µM (≈ 35.1 µg/mL)
MIC (Staphylococcus aureus 1): ≥ 77 µM
MIC [5]: 23 µM (≈ 40.4 µg/mL)
MIC (Pseudomonas aeruginosa): 46 µM (≈ 80.7 µg/mL)
MIC [13]: 11 µM (≈ 19.3 µg/mL)
MIC (Staphylococcus aureus): 90 µM (≈ 158 µg/mL)
MIC [14]: 85 µM (≈ 149 µg/mL)
Structure (SMILES): CC[C@H](C)[C@H](NC(=O)CN)C(=O)N[C@@H](CCSC)C(=O)N[C@@H](CO)C(=O)N[C@@H](CO)C(=O)N[C@@H](CC(C)C)C(=O)N[C@@H](CCSC)C(=O)N[C@@H](CCCCN)C(=O)N[C@@H](CCCCN)C(=O)N[C@@H](CC(C)C)C(=O)N[C@@H](C)C(=O)N[C@@H](C)C(=O)N[C@@H](Cc1cnc[nH]1)C(=O)N[C@H](C(=O)N[C@@H](CCCCN)C(=O)N[C@@H](CCCCN)C(N)=O)[C@@H](C)CC [GIMSSLMKKLAAHIKK]

MIC [5]: > 44.3 µM
MIC (Escherichia coli MG1655): 11.1 µM (≈ 25 µg/mL)
MIC [6]: ≥ 44.3 µM
MIC [7]: 22.2 µM (≈ 50 µg/mL)
MIC [15]: 44.3 µM (≈ 100 µg/mL)
MIC [14]: > 44.3 µM
Structure (SMILES): CC[C@H](C)[C@H](NC(=O)[C@H](CCCCN)NC(=O)[C@H](CS)NC(=O)[C@H](CC(C)C)NC(=O)[C@@H](NC(=O)[C@H](CCC(N)=O)NC(=O)[C@@H]1CCCN1C(=O)[C@H](CC(C)C)NC(=O)[C@H](Cc1ccccc1)NC(=O)[C@H](CC(N)=O)NC(=O)[C@H](C)NC(=O)[C@H](C)NC(=O)[C@H](CC(C)C)NC(=O)CNC(=O)[C@H](C)NC(=O)[C@@H](NC(=O)[C@@H](N)CC(C)C)[C@@H](C)CC)[C@@H](C)CC)C(=O)N[C@@H](C)C(=O)N[C@@H](CCCN=C(N)N)C(=O)N[C@@H](CCCCN)C(=O)N[C@@H](CS)C(N)=O [LIAGLAANFLPQILCKIARKC]
MIC (Vibrio cholerae): 11.1 µM (≈ 25 µg/mL)

MIC (Bacillus subtilis 168): 7 µM (≈ 12.8 µg/mL)
MIC [11]: 17 µM (≈ 31 µg/mL)
MIC [12]: 3 µM (≈ 5.48 µg/mL)
MIC (Escherichia coli B): 11 µM (≈ 20.1 µg/mL)
MIC (Staphylococcus aureus 1): 6.6 µM (≈ 12 µg/mL)
MIC [5]: 4 µM (≈ 7.3 µg/mL)
MIC (Pseudomonas aeruginosa): 5.9 µM (≈ 10.8 µg/mL)
MIC [13]: 2 µM (≈ 3.65 µg/mL)
MIC (Staphylococcus aureus): 16 µM (≈ 29.2 µg/mL)
MIC [14]: 16 µM (≈ 29.2 µg/mL)
Structure (SMILES): CC[C@H](C)[C@H](NC(=O)CN)C(=O)N[C@@H](CC(C)C)C(=O)N[C@@H](CO)C(=O)N[C@@H](CO)C(=O)N[C@@H](Cc1c[nH]c2ccccc12)C(=O)N[C@@H](CC(C)C)C(=O)N[C@@H](CCCCN)C(=O)N[C@@H](CCCCN)C(=O)N[C@@H](CC(C)C)C(=O)N[C@@H](CCCCN)C(=O)N[C@@H](CCCCN)C(=O)N[C@H](C(=O)N[C@H](C(=O)N[C@@H](C)C(=O)N[C@@H](CCCCN)C(N)=O)[C@@H](C)CC)[C@@H](C)CC [GILSSWLKKLKKIIAK]

MIC [8]: ≥ 367 µM
MIC [5]: 367 µM (≈ 512 µg/mL)
MIC [9]: > 367 µM
MIC [10]: ≥ 367 µM
Structure (SMILES): CC(C)C[C@H](NC(=O)[C@H](Cc1ccccc1)NC(=O)[C@@H](N)CCCCN)C(=O)N[C@@H](CCCCN)C(=O)N[C@@H](CCCCN)C(=O)N[C@@H](C)C(=O)N[C@@H](CCCCN)C(=O)N[C@@H](CCCCN)C(=O)N[C@@H](Cc1ccccc1)C(=O)NCC(=O)N[C@@H](CCCCN)C(=O)N[C@@H](C)C(N)=O [KFLKKAKKFGKA]
